Key:
Assay in all cases: biochemical
Parameters in all cases: KinomeScan competition binding panel (DiscoveRx), percent of control at 1 uM
Conditions in all cases: read-out: Percent Control
SLK = SLK (Homo sapiens, UniProt Q9H2G2)
In short: (§1)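 Selectivity profiled across 456 kinases/mutants by KinomeScan binding technology.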

DCAMKL3 = biological target: T1, DCAMKL3 (Homo sapiens, UniProt Q9C098)
T1 construct: gene DCLK3
In short: as §1

DYRK1A = DYRK1A (Homo sapiens, UniProt Q13627)
In short: as §1

MLCK = biological target: T2, MLCK (Homo sapiens, UniProt Q32MK0)
T2 construct: gene MYLK3
In short: as §1

MTOR = MTOR (Homo sapiens, UniProt P42345)
In short: as §1

ERBB3 = ERBB3 (Homo sapiens, UniProt P21860)
ERBB3, sequence (P21860 whole entry): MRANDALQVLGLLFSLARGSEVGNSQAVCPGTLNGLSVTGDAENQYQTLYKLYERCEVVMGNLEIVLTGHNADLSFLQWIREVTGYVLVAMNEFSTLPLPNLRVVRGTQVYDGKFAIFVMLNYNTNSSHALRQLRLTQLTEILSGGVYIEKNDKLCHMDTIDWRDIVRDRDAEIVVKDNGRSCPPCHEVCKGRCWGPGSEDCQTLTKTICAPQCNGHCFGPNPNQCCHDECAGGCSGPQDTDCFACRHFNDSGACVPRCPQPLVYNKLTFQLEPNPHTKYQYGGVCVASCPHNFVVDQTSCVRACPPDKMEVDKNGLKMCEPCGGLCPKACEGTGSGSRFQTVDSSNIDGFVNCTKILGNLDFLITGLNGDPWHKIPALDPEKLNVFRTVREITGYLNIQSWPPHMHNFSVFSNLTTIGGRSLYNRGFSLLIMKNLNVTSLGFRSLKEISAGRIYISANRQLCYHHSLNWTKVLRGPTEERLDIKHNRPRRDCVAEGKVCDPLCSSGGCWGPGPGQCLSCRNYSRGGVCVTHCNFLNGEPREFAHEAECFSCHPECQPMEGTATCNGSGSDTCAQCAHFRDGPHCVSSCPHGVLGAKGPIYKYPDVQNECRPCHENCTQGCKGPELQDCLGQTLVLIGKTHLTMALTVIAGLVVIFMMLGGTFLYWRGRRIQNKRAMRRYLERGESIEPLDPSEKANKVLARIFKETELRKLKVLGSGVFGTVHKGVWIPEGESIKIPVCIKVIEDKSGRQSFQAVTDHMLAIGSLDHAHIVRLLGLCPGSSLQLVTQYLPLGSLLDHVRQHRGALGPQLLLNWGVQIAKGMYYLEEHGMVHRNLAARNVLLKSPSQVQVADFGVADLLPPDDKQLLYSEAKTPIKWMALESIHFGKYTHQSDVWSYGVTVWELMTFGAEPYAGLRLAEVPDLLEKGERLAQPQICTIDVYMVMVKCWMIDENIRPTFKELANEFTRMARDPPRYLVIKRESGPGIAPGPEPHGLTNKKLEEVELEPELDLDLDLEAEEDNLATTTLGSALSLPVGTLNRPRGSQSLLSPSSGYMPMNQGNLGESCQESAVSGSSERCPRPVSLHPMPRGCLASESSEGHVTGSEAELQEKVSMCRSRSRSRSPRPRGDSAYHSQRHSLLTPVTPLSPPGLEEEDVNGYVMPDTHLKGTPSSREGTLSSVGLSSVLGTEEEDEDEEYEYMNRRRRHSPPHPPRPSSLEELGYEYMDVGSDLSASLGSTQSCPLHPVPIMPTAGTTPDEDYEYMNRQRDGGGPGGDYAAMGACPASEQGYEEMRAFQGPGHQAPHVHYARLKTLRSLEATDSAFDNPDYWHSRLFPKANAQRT
In short: as §1

PAK1 = PAK1 (Homo sapiens, UniProt Q13153)
In short: as §1

CSNK1A1 = CSNK1A1 (Homo sapiens, UniProt P48729)
CSNK1A1, sequence (P48729 whole entry): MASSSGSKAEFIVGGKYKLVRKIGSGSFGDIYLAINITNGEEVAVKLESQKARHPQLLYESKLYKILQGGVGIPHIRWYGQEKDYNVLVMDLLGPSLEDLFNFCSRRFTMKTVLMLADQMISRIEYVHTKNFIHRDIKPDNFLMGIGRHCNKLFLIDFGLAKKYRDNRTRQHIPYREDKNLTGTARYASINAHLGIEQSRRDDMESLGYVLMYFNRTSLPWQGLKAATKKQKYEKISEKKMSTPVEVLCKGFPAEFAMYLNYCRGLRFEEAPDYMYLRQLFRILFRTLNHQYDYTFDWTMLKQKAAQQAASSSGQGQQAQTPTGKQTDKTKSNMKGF
In short: as §1

CDK4-cyclinD1 = biological target: T3, CDK4-cyclinD1 (Homo sapiens, UniProt P11802)
T3 construct: cyclinD1
T3 sequence (P11802 whole entry): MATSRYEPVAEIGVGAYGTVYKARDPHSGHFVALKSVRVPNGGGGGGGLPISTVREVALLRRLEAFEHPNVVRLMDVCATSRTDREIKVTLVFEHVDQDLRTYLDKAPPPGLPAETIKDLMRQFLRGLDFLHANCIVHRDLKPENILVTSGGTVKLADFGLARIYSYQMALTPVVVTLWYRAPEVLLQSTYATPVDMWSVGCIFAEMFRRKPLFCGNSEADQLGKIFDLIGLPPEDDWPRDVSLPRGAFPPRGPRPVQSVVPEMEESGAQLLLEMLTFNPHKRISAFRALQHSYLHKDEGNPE
T3 sequence (P24385 whole entry partner): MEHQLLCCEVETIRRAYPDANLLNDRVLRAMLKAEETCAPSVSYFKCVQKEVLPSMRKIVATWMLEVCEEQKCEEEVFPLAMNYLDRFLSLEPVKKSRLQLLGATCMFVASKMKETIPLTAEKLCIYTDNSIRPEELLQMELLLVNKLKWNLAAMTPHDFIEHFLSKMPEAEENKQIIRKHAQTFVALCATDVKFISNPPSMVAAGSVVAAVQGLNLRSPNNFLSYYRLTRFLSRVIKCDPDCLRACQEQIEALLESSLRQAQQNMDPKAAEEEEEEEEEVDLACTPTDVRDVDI
In short: as §1

PDGFRB = PDGFRB (Homo sapiens, UniProt P09619)
In short: as §1

SBK1 = SBK1 (Homo sapiens, UniProt Q52WX2)
In short: as §1

PRKR = biological target: T4, PRKR (Homo sapiens, UniProt P19525)
T4 construct: gene EIF2AK2
In short: as §1

EGFR(S752-I759del) = EGFR(S752-I759del) (Homo sapiens, UniProt P00533, DEL752-759)
In short: as §1

FLT3(D835H) = FLT3(D835H) (Homo sapiens, UniProt P36888, D835H)
In short: as §1

AURKB = AURKB (Homo sapiens, UniProt Q96GD4)
In short: as §1

[1] = biological target: T5, ABL1(M351T)-phosphorylated (Homo sapiens, UniProt P00519, M351T)
T5 construct: phosphorylated
In short: as §1

AURKA = AURKA (Homo sapiens, UniProt O14965)
AURKA, sequence (O14965 whole entry): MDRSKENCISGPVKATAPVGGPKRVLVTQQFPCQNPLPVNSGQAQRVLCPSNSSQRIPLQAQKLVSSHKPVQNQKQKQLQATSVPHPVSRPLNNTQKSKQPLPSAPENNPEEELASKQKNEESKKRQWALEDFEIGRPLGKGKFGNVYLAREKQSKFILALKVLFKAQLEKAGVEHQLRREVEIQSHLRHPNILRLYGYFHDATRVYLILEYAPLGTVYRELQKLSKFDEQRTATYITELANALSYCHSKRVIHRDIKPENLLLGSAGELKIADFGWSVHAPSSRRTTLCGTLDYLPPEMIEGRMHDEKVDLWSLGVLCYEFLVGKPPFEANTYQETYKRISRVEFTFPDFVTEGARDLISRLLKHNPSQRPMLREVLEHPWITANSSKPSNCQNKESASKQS
In short: as §1

BUB1 = BUB1 (Homo sapiens, UniProt O43683)
In short: as §1

EPHA8 = EPHA8 (Homo sapiens, UniProt P29322)
In short: as §1

DDR2 = DDR2 (Homo sapiens, UniProt Q16832)
In short: as §1

INSR = INSR (Homo sapiens, UniProt P06213)
INSR, sequence (P06213 whole entry): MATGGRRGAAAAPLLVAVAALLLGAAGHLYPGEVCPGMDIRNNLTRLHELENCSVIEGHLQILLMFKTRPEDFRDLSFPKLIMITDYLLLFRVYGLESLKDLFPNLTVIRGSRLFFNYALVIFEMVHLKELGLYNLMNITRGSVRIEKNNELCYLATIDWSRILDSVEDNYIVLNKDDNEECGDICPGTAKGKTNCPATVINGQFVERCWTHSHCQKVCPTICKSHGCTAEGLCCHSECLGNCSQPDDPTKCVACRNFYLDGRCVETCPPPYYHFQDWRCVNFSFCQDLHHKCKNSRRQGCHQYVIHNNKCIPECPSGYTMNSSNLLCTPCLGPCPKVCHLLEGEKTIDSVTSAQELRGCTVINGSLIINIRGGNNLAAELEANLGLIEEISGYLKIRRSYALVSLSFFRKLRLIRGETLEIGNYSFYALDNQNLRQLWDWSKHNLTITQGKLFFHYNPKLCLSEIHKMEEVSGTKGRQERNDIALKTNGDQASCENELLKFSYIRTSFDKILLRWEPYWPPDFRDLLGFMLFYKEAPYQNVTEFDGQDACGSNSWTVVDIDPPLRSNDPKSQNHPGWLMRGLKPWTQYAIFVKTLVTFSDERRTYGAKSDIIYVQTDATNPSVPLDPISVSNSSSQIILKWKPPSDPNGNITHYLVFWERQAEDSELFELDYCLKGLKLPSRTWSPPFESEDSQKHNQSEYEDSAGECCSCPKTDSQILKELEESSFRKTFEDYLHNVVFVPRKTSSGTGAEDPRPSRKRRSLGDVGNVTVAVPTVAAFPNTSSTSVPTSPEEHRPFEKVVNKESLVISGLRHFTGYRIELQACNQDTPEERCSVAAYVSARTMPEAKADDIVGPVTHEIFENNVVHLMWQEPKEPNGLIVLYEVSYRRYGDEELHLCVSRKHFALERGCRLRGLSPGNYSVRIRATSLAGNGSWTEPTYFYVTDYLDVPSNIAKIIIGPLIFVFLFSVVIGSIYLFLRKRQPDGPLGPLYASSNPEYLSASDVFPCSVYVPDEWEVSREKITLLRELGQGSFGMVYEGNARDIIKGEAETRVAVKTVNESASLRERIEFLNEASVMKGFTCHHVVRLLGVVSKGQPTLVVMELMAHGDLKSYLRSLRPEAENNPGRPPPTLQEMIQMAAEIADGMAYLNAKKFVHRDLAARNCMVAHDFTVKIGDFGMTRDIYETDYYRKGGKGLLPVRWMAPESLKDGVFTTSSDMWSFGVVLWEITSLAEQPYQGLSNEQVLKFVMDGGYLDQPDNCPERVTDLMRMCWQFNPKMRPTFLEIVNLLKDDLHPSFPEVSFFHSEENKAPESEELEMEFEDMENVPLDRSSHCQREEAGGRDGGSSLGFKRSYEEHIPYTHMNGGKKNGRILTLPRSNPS
In short: as §1

GSK3A = GSK3A (Homo sapiens, UniProt P49840)
In short: as §1

TAOK1 = TAOK1 (Homo sapiens, UniProt Q7L7X3)
TAOK1, sequence (Q7L7X3 whole entry): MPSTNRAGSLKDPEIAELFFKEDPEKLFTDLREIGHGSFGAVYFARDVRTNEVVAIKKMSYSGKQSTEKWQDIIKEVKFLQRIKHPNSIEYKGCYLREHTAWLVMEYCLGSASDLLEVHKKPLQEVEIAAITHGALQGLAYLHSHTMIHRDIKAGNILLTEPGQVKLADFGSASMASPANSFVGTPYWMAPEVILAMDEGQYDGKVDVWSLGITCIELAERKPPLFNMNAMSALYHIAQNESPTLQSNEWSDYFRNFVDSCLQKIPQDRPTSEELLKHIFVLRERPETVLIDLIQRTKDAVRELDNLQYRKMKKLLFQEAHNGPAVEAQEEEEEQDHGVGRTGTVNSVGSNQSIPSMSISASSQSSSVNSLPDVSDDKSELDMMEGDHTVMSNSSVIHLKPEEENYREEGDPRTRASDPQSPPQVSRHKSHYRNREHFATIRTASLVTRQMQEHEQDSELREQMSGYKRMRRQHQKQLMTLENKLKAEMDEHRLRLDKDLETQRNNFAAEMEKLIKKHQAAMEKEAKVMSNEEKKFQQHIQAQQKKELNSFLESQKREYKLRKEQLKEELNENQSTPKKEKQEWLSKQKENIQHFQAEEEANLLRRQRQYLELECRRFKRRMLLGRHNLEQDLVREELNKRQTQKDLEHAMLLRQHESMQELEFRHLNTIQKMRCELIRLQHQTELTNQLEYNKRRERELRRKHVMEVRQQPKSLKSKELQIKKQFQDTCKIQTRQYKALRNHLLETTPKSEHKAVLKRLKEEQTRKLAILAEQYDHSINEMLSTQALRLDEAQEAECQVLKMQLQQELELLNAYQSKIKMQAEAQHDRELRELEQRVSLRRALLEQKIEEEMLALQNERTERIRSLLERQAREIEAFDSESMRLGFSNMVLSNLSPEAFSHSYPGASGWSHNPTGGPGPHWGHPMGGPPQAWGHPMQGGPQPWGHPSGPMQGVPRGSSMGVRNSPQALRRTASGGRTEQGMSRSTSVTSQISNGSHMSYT
In short: as §1

PAK3 = PAK3 (Homo sapiens, UniProt O75914)
In short: as §1

LIMK2 = LIMK2 (Homo sapiens, UniProt P53671)
In short: as §1

`C=CC(=O)Nc1cc(-n2c(=O)ccc3cnc4ccc(-n5cccn5)cc4c32)ccc1C` [CHMFL-BTK-11] showed a remaining binding at 1 µM (SLK) of 100%, a remaining binding at 1 µM (DCAMKL3) of 88% and a remaining binding at 1 µM (DYRK1A) of 100%. The remaining binding at 1 µM (MLCK) was 98%, the remaining binding at 1 µM (MTOR) was 62% and the remaining binding at 1 µM (ERBB3) was 90%. The remaining binding at 1 µM (PAK1) was 100%, the remaining binding at 1 µM (CSNK1A1) was 100% and the remaining binding at 1 µM (CDK4-cyclinD1) was 97%. It also gave a remaining binding at 1 µM (PDGFRB) of 100%, a remaining binding at 1 µM (SBK1) of 81% and a remaining binding at 1 µM (PRKR) of 80%. It also gave a remaining binding at 1 µM (EGFR(S752-I759del)) of 58%, a remaining binding at 1 µM (FLT3(D835H)) of 100% and a remaining binding at 1 µM (AURKB) of 94%. For the same compound, the remaining binding at 1 µM [1] was 72%, the remaining binding at 1 µM (AURKA) was 71% and the remaining binding at 1 µM (BUB1) was 83%. For the same compound, the remaining binding at 1 µM (EPHA8) was 92%, the remaining binding at 1 µM (DDR2) was 99% and the remaining binding at 1 µM (INSR) was 82%. The remaining binding at 1 µM (GSK3A) was 90%, the remaining binding at 1 µM (TAOK1) was 100% and the remaining binding at 1 µM (PAK3) was 94%. For the same compound, the remaining binding at 1 µM (LIMK2) was 100%.

Reference: publication PMC5428509, “Irreversible inhibition of BTK kinase by a novel highly selective inhibitor CHMFL-BTK-11 suppresses inflammatory response in rheumatoid arthritis model” (Scientific Reports, 2017)
